Laboratory results from paper PMC4380168 (Bioorganic & medicinal chemistry, 2015).
pEC50, pIC50: −log10 of the molar value. Like-named read-outs stand apart in the source and are kept apart here.

Experiments:
[1] = ref [7]; cited from earlier work
SK-OV-3 (ovarian cancer) = experiment: Cytotoxicity against SK-OV-3 ovarian carcinoma cell line; format: cell-based, human
A549 (lung cancer) = experiment: Cytotoxicity against A549 lung carcinoma cell line; format: cell-based, human
[2] = tested on: MRC-5 (human lung fibroblast); experiment: Cytotoxicity against MRC-5 cell line; format: cell-based; settings: read-out: MRC-5 EC50 (human lung fibroblast); triplicates
[3] = tested on: MDA-MB-231 (breast cancer); experiment: Cytotoxicity against MDA-MB-231 breast carcinoma cell line; format: cell-based; settings: Homo sapiens
[4] = tested on: polio-infected HeLa cells; settings: at 10^−7 M; ref [5],[4b]; cited from earlier work
MRC-5 = settings: read-out: MRC-5 IC50; cytotoxicity against human eukaryotic cell lines; ref [5],[4b]; cited from earlier work
P.f. K1 = settings: read-out: P.f. K1 IC50; antiprotozoal; ref [5],[4b]; cited from earlier work
[5] = Cytotoxicity against MRC-5 cell line; format: cell-based, human; settings: human, MRC-5 cells (human lung fibroblast, embryonic cell line)

jogyamycin [Compound 3]
antiprotozoal activity relative to 1 [1]: increased antiprotozoal activity relative to 1

CC(=O)c1cccc(N[C@H]2[C@H](N)[C@]3(NC(=O)O[C@H]3C)[C@@](C)(O)[C@@]2(O)CO)c1 [Compound 21, De-6-MSA pactamycate]
pEC50 (SK-OV-3 (ovarian cancer); read-out: SK-OV-3 EC50 (ovarian cancer), triplicates): 5.42
pEC50 (A549 (lung cancer); read-out: A549 EC50 (lung cancer), triplicates): 5.22
pEC50 [2]: 5.53

CC(=O)c1cccc(N[C@H]2[C@H](N)[C@@](NC(=O)N(C)C)([C@H](C)O)[C@@](C)(O)[C@@]2(O)COC(=O)c2c(C)cccc2O)c1 [Compound 1, pactamycin]
pEC50 ([3]; MDA-MB-231, read-out: MDA-MB-231 EC50): 6.91
pEC50 ([3]; MDA-MB-231, read-out: MDA-MB-231 EC50 (breast cancer)): 6.91
pEC50 (SK-OV-3 (ovarian cancer); Homo sapiens, SK-OV-3, read-out: SK-OV-3 EC50 (ovarian cancer)): 6.89
inhibition of polio-infected HeLa cells [4]: complete inhibition
pIC50 (MRC-5): 7.02
pEC50 (A549 (lung cancer); Homo sapiens, A549, read-out: A549 EC50): 6.80
pEC50 (A549 (lung cancer); Homo sapiens, A549, read-out: A549 EC50 (lung cancer)): 6.80
pIC50 (P.f. K1): 7.85
pEC50 [5]: 7.28

CC[C@]1(NC(=O)N(C)C)[C@@H](N)[C@H](Nc2cccc(C(C)=O)c2)[C@](O)(COC(=O)c2c(C)cccc2O)[C@]1(C)O [Compound 2, 7-Deoxypactamycin]
antiprotozoal activity relative to 1 [1]: increased antiprotozoal activity relative to 1
